{"source": "patent US10806726B2", "about": "“Methods of using indazole-3-carb oxamides and their use as Wnt/B-catenin signaling pathway inhibitors” (Samumed, LLC, priority 2016, dated 2020)", "key": {"[1]": {"tested_on": "collagenase-induced tendonitis of the Achilles tendon in Sprague Dawley rats", "test": "Rat Tendinopathy Model (1), collagenase-induced, tendon histology scoring", "assay_type": "in vivo", "details": "for tendon histology score: topical once daily 21 days, total score of 20", "experimental": "(§1) Fifty (50 μl) of Collagenase Type IA (10 mg/ml in PBS, pH 7.4, approximately 469 units/mg) (Catalog # C5138, Sigma, St. Louis, Mo.) was injected into the Achilles tendon of both ankles near the osteotendinous junction of male Sprague Dawley CD® IGS rats (CRL, Inc.), using insulin syringes with 28.5 G needle.\nRats were divided into […] with 5 animals per group: Group 1 (sham injection); Group 2 (Collagenase-Vehicle); Group 3 (Collagenase-compound 175 10 mg/mL with 1% BA) and Group 4 (Collagenase-COMPOUND 175 10 mg/mL with 0.5% Tween 80). […] All rats were periodically observed for any pain, illnesses or abnormalities. At various time points, blood was collected for plasma in lithium heparin coated tubes by saphenous vein bleeding. For histology, rats were euthanized using isoflurane, tendons were isolated (n=6 tendons/group), fixed in 10% buffered formalin (Catalog # SF93-4, Fisher, Pittsburgh Pa.) and H & E histology staining was performed at a secondary site (Pacific Pathology, San Diego, Calif.). For biochemical analysis, tendons were isolated (n=4 tendons/group), flash frozen in liquid nitrogen and then stored at −80° C. for subsequent biochemical analysis (not reported).\nThere is biological variability in response to collagenase when injected directly into the tendons. […] Slides were viewed under an upright light microscope (EVOS AMEX-1200) at a 10× magnification and scored blinded using a 1-4 scoring system of severity: 1—representing severe damage and 4—representing normal tendon, for Linearity of the fiber structure, Shape of the tendon cells, Density of the tendon cells, Inflammation, and Hemorrhage for a total score of twenty (20) using a modification of that described previously (Urdzikova et al., 2014—see Table 3). […]\nFor tendon scoring, each section was analyzed following a 1-4 point scoring system as previously described (Urdzikova et al., 2014) with the exclusion of one variable, the Thickness of the epitenon, due to the difficulty in discerning the epitenon layer in histology sections. […]"}, "KC/GRO in plasma": {"tested_on": "KC/GRO in plasma", "test": "Rat Tendinopathy Model (2), plasma biomarker KC/GRO", "assay_type": "in vivo", "experimental": "as §1\nRats were divided into 6 groups, with 6 animals per group except 8 animals in Group 2: Group 1 (sham injection), Group 2 (Collagenase-Vehicle with 0.5% Phx), Group 3 (Collagenase-compound 175 3 mg/mL with 0.5% BA), Group 4 (Collagenase-compound 175 10 mg/mL with 0.5% BA), Group 5 (Collagenase-compound 175 3 mg/mL with 0.5% Phx) and Group 6 (Collagenase-compound 175 10 mg/mL with 0.5% Phx). […] All rats were periodically observed for any pain, illnesses or abnormalities. At various time points, blood was collected for plasma in lithium heparin coated tubes by saphenous vein bleeding. For histology, rats were euthanized using isoflurane, tendons were isolated (n=8 tendons/group), fixed in 10% buffered formalin (Catalog # SF93-4, Fisher, Pittsburgh, Pa.) and H & E histology staining was performed at a secondary site (Pacific Pathology, San Diego, Calif.). For biochemical analysis, tendons were isolated (n=4 tendons/group), flash frozen in liquid nitrogen and then stored at −80° C. for subsequent biochemical analysis (not reported). Additionally, one (1) day after collagenase injection, 4 tendons were collected from Group 2 (vehicle) to observe the induction of inflammation (not reported).\nFollowing manufacturer's instructions, KC/GRO plasma levels were determined using the KC/GRO Immunoassay kit (Cat #900-K57, Peprotech, Rocky Hill, N.J.). Briefly, 96-well plates were coated with the anti-rat KC/GRO capture antibody overnight and washed to remove excess antibody. Plasma samples were incubated in the coated plates for 2 hours at room temperature. Following washes to remove unbound proteins, biotinylated anti-rat KC/GRO detection antibody was added and incubated for 30 mins at room temperature. Following washes to remove unbound excess antibody, avidin-HRP was added and incubated for 30 mins at room temperature. Following washes to remove unbound avidin-HRP, the ABTS substrate was added and the plates were read on the Cytation 3 plate reader (Biotek Inc., Winooski, Vt.) at an absorbance of 525 nm with correction at 450 nm. All samples were processed in triplicate."}}, "data": [{"smiles": "COc1ccc(NC(=O)c2n[nH]c3ccc(-c4cncc(CN5CCCCC5)c4)cc23)cn1", "note": "[compound 175, N-(6-Methoxypyridin-3-yl)-5-(5-(piperidin-1-ylmethyl)pyridin-3-yl)-1H-indazole-3-carboxamide]", "values": [{"measurement": "blinded histology scoring of tendon injury and inflammation vs vehicle", "setting": "[1]; 10 mg/ml with or without BA preservative, topical 21 days", "result": "significantly ameliorated collagenase-induced tendinopathy"}, {"measurement": "tendon histology score", "setting": "[1]; Group 3, 10 mg/mL with BA", "result": "14.0 (±0.217)"}, {"measurement": "tendon histology score", "setting": "[1]; Group 4, 10 mg/mL without BA (0.5% Tween 80)", "result": "12.2 (±0.284)"}, {"measurement": "plasma KC/GRO vs vehicle", "setting": "KC/GRO in plasma; 3 and 10 mg/mL, with either BA or Phx as preservative", "result": "significantly decreased the levels of KC/GRO in plasma"}, {"measurement": "Plasma KC/GRO Concentration", "setting": "KC/GRO in plasma; Day 0, Group 3, 3 mg/mL, 0.5% BA", "result": "78.2 ± 14.9", "unit": "pg/mL"}, {"measurement": "Plasma KC/GRO Concentration", "setting": "KC/GRO in plasma; Day 0, Group 4, 10 mg/mL, 0.5% BA", "result": "224 ± 40.1", "unit": "pg/mL"}, {"measurement": "Plasma KC/GRO Concentration", "setting": "KC/GRO in plasma; Day 0, Group 5, 3 mg/mL, 0.5% Phx", "result": "112 ± 74.0", "unit": "pg/mL"}, {"measurement": "Plasma KC/GRO Concentration", "setting": "KC/GRO in plasma; Day 0, Group 6, 10 mg/mL, 0.5% Phx", "result": "254 ± 60.6", "unit": "pg/mL"}, {"measurement": "Plasma KC/GRO Concentration", "setting": "KC/GRO in plasma; Day 1, Group 3, 3 mg/mL, 0.5% BA", "result": "472 ± 47.2", "unit": "pg/mL"}, {"measurement": "Plasma KC/GRO Concentration", "setting": "KC/GRO in plasma; Day 1, Group 4, 10 mg/mL, 0.5% BA", "result": "360 ± 31.4", "unit": "pg/mL"}, {"measurement": "Plasma KC/GRO Concentration", "setting": "KC/GRO in plasma; Day 1, Group 5, 3 mg/mL, 0.5% Phx", "result": "416 ± 47.9", "unit": "pg/mL"}, {"measurement": "Plasma KC/GRO Concentration", "setting": "KC/GRO in plasma; Day 1, Group 6, 10 mg/mL, 0.5% Phx", "result": "375 ± 44.4", "unit": "pg/mL"}, {"measurement": "Plasma KC/GRO Concentration", "setting": "KC/GRO in plasma; Day 3, Group 3, 3 mg/mL, 0.5% BA", "result": "449 ± 53.9", "unit": "pg/mL"}, {"measurement": "Plasma KC/GRO Concentration", "setting": "KC/GRO in plasma; Day 3, Group 4, 10 mg/mL, 0.5% BA", "result": "454 ± 52.2", "unit": "pg/mL"}, {"measurement": "Plasma KC/GRO Concentration", "setting": "KC/GRO in plasma; Day 3, Group 5, 3 mg/mL, 0.5% Phx", "result": "374 ± 89.1", "unit": "pg/mL"}, {"measurement": "Plasma KC/GRO Concentration", "setting": "KC/GRO in plasma; Day 3, Group 6, 10 mg/mL, 0.5% Phx", "result": "405 ± 42.1", "unit": "pg/mL"}, {"measurement": "Plasma KC/GRO Concentration", "setting": "KC/GRO in plasma; Day 5, Group 3, 3 mg/mL, 0.5% BA", "result": "561 ± 97.2", "unit": "pg/mL"}, {"measurement": "Plasma KC/GRO Concentration", "setting": "KC/GRO in plasma; Day 5, Group 4, 10 mg/mL, 0.5% BA", "result": "327 ± 49.9", "unit": "pg/mL"}, {"measurement": "Plasma KC/GRO Concentration", "setting": "KC/GRO in plasma; Day 5, Group 5, 3 mg/mL, 0.5% Phx", "result": "431 ± 24.5", "unit": "pg/mL"}, {"measurement": "Plasma KC/GRO Concentration", "setting": "KC/GRO in plasma; Day 5, Group 6, 10 mg/mL, 0.5% Phx", "result": "328 ± 37.1", "unit": "pg/mL"}, {"measurement": "Plasma KC/GRO Concentration", "setting": "KC/GRO in plasma; Day 7, Group 3, 3 mg/mL, 0.5% BA", "result": "445 ± 54.5", "unit": "pg/mL"}, {"measurement": "Plasma KC/GRO Concentration", "setting": "KC/GRO in plasma; Day 7, Group 4, 10 mg/mL, 0.5% BA", "result": "396 ± 92.4", "unit": "pg/mL"}, {"measurement": "Plasma KC/GRO Concentration", "setting": "KC/GRO in plasma; Day 7, Group 5, 3 mg/mL, 0.5% Phx", "result": "422 ± 47.9", "unit": "pg/mL"}, {"measurement": "Plasma KC/GRO Concentration", "setting": "KC/GRO in plasma; Day 7, Group 6, 10 mg/mL, 0.5% Phx", "result": "299 ± 53.9", "unit": "pg/mL"}, {"measurement": "Plasma KC/GRO Concentration", "setting": "KC/GRO in plasma; Day 14, Group 3, 3 mg/mL, 0.5% BA", "result": "319 ± 57.7", "unit": "pg/mL"}, {"measurement": "Plasma KC/GRO Concentration", "setting": "KC/GRO in plasma; Day 14, Group 4, 10 mg/mL, 0.5% BA", "result": "343 ± 59.4", "unit": "pg/mL"}, {"measurement": "Plasma KC/GRO Concentration", "setting": "KC/GRO in plasma; Day 14, Group 5, 3 mg/mL, 0.5% Phx", "result": "505 ± 41.0", "unit": "pg/mL"}, {"measurement": "Plasma KC/GRO Concentration", "setting": "KC/GRO in plasma; Day 14, Group 6, 10 mg/mL, 0.5% Phx", "result": "265 ± 20.8", "unit": "pg/mL"}, {"measurement": "Plasma KC/GRO Concentration", "setting": "KC/GRO in plasma; Day 21, Group 3, 3 mg/mL, 0.5% BA", "result": "150 ± 53.8", "unit": "pg/mL"}, {"measurement": "Plasma KC/GRO Concentration", "setting": "KC/GRO in plasma; Day 21, Group 4, 10 mg/mL, 0.5% BA", "result": "350 ± 25.6", "unit": "pg/mL"}, {"measurement": "Plasma KC/GRO Concentration", "setting": "KC/GRO in plasma; Day 21, Group 5, 3 mg/mL, 0.5% Phx", "result": "226 ± 37.3", "unit": "pg/mL"}, {"measurement": "Plasma KC/GRO Concentration", "setting": "KC/GRO in plasma; Day 21, Group 6, 10 mg/mL, 0.5% Phx", "result": "342 ± 39.7", "unit": "pg/mL"}, {"measurement": "plasma KC/GRO levels, range", "setting": "KC/GRO in plasma; Days 5-21, all four treated groups", "result": "150 to 561", "unit": "pg/mL"}]}]}
